In PubChem BioAssay (NCI):
Where “and” joins values, the source holds several entries; their conditions need not be identical. Equal entries are not always repeated.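 How tested: cells in 96-well plates exposed to compound for 48 hours at five concentrations. GI50: concentration for 50% inhibition of growth. The concentration for full growth arrest is given as TGI.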

Columns and labels:
Assay in all cases: DTP human tumour cell line panel, 48 h; in the data active = GI50 below about 0.43 µM; inactive = the rest
786-0 renal = tested on: 786-0 renal
A498 renal = tested on: A498 renal
A549 NSCLC = tested on: A549 NSCLC
ACHN renal = tested on: ACHN renal
BT-549 breast = tested on: BT-549 breast
CAKI-1 renal = tested on: CAKI-1 renal
CCRF-CEM leukemia = tested on: CCRF-CEM leukemia
COLO 205 colon = tested on: COLO 205 colon
DLD-1 colon = tested on: DLD-1 colon
DMS 114 small cell lung = tested on: DMS 114 small cell lung
DMS 273 small cell lung = tested on: DMS 273 small cell lung
DU-145 prostate = tested on: DU-145 prostate
EKVX NSCLC = tested on: EKVX NSCLC
HCC-2998 colon = tested on: HCC-2998 colon
HCT-116 colon = tested on: HCT-116 colon
HCT-15 colon = tested on: HCT-15 colon
HL-60(TB) leukemia = tested on: HL-60(TB) leukemia
HOP-62 NSCLC = tested on: HOP-62 NSCLC
HOP-92 NSCLC = tested on: HOP-92 NSCLC
HS 578T breast = tested on: HS 578T breast
HT29 colon = tested on: HT29 colon
IGROV1 ovarian = tested on: IGROV1 ovarian
K-562 leukemia = tested on: K-562 leukemia
KM12 colon = tested on: KM12 colon
KM20L2 colon = tested on: KM20L2 colon
LOX IMVI melanoma = tested on: LOX IMVI melanoma
LXFL 529 NSCLC = tested on: LXFL 529 NSCLC
M14 melanoma = tested on: M14 melanoma
M19-MEL melanoma = tested on: M19-MEL melanoma
MALME-3M melanoma = tested on: MALME-3M melanoma
MCF7 breast = tested on: MCF7 breast
MDA-MB-231 breast = tested on: MDA-MB-231 breast
MDA-MB-435 = tested on: MDA-MB-435
MOLT-4 leukemia = tested on: MOLT-4 leukemia
NCI-H226 lung = tested on: NCI-H226 lung
NCI-H23 lung = tested on: NCI-H23 lung
NCI-H460 lung = tested on: NCI-H460 lung
NCI-H522 lung = tested on: NCI-H522 lung
NCI/ADR-RES ovarian = tested on: NCI/ADR-RES ovarian
OVCAR-3 ovarian = tested on: OVCAR-3 ovarian
OVCAR-4 ovarian = tested on: OVCAR-4 ovarian
OVCAR-5 ovarian = tested on: OVCAR-5 ovarian
OVCAR-8 ovarian = tested on: OVCAR-8 ovarian
PC-3 prostate = tested on: PC-3 prostate
RPMI-8226 leukemia = tested on: RPMI-8226 leukemia
RXF 393 renal = tested on: RXF 393 renal
SF-268 CNS = tested on: SF-268 CNS
SF-295 CNS = tested on: SF-295 CNS
SF-539 CNS = tested on: SF-539 CNS
SK-MEL-2 melanoma = tested on: SK-MEL-2 melanoma
SK-MEL-28 melanoma = tested on: SK-MEL-28 melanoma
SK-MEL-5 melanoma = tested on: SK-MEL-5 melanoma
SK-OV-3 ovarian = tested on: SK-OV-3 ovarian
SN12C renal = tested on: SN12C renal
SNB-19 CNS = tested on: SNB-19 CNS
SNB-75 CNS = tested on: SNB-75 CNS
SNB-78 CNS = tested on: SNB-78 CNS
SR leukemia = tested on: SR leukemia
SW-620 colon = tested on: SW-620 colon
T-47D breast = tested on: T-47D breast
TK-10 renal = tested on: TK-10 renal
U251 CNS = tested on: U251 CNS
UACC-257 melanoma = tested on: UACC-257 melanoma
UACC-62 melanoma = tested on: UACC-62 melanoma
UO-31 renal = tested on: UO-31 renal

Cc1cc(O)c(C(C)C)cc1S(=O)(=O)O (tested in a mixture with another compound)
1920 nM: TGI (HS 578T breast)
2460 nM: TGI (SK-MEL-2 melanoma)
1440 nM: TGI (SK-MEL-5 melanoma)
2450 nM: TGI (DU-145 prostate)
2160 nM: TGI (A498 renal)
1650 nM: TGI (MDA-MB-231 breast)
1660 nM: TGI (HOP-92 NSCLC)
> 100000 nM: TGI (DLD-1 colon) | TGI (DMS 114 small cell lung) | TGI (DMS 273 small cell lung) | TGI (KM20L2 colon) | TGI (LXFL 529 NSCLC) | TGI (M19-MEL melanoma) | TGI (SNB-78 CNS)
1570 nM: TGI (MCF7 breast)
> 100000 nM and 10900 nM: TGI (ACHN renal)
inactive: GI50 (786-0 renal) 586 nM | GI50 (ACHN renal) 1040 nM | GI50 (BT-549 breast) 2260 nM | GI50 (CAKI-1 renal) 435 nM | GI50 (EKVX NSCLC) 678 nM | GI50 (HOP-62 NSCLC) 442 nM | GI50 (IGROV1 ovarian) 554 nM | GI50 (LOX IMVI melanoma) 483 nM | GI50 (MALME-3M melanoma) 774 nM | GI50 (NCI-H226 lung) 850 nM | GI50 (NCI-H23 lung) 427 nM | GI50 (NCI/ADR-RES ovarian) 658 nM | GI50 (OVCAR-4 ovarian) 507 nM | GI50 (OVCAR-5 ovarian) 727 nM | GI50 (SF-268 CNS) 797 nM | GI50 (SK-MEL-2 melanoma) 502 nM | GI50 (SK-MEL-28 melanoma) 634 nM | GI50 (SN12C renal) 448 nM | GI50 (T-47D breast) 856 nM | GI50 (TK-10 renal) 1220 nM | GI50 (UACC-257 melanoma) 963 nM | GI50 (UACC-62 melanoma) 566 nM
active: GI50 (A498 renal) 244 nM | GI50 (A549 NSCLC) 372 nM | GI50 (CCRF-CEM leukemia) 323 nM | GI50 (COLO 205 colon) 224 nM | GI50 (DU-145 prostate) 363 nM | GI50 (HCC-2998 colon) 229 nM | GI50 (HCT-116 colon) 343 nM | GI50 (HCT-15 colon) 380 nM | GI50 (HL-60(TB) leukemia) 279 nM | GI50 (HOP-92 NSCLC) 188 nM | GI50 (HS 578T breast) 281 nM | GI50 (HT29 colon) 337 nM | GI50 (K-562 leukemia) 375 nM | GI50 (KM12 colon) 381 nM | GI50 (M14 melanoma) 296 nM | GI50 (MCF7 breast) 325 nM | GI50 (MDA-MB-231 breast) 377 nM | GI50 (MDA-MB-435) 171 nM | GI50 (MOLT-4 leukemia) 401 nM | GI50 (NCI-H460 lung) 347 nM | GI50 (NCI-H522 lung) 238 nM | GI50 (OVCAR-3 ovarian) 259 nM | GI50 (OVCAR-8 ovarian) 335 nM | GI50 (PC-3 prostate) 318 nM | GI50 (RPMI-8226 leukemia) 357 nM | GI50 (RXF 393 renal) 213 nM | GI50 (SF-295 CNS) 281 nM | GI50 (SF-539 CNS) 319 nM | GI50 (SK-MEL-5 melanoma) 394 nM | GI50 (SK-OV-3 ovarian) 270 nM | GI50 (SNB-19 CNS) 423 nM | GI50 (SNB-75 CNS) 378 nM | GI50 (SR leukemia) 160 nM | GI50 (SW-620 colon) 404 nM | GI50 (U251 CNS) 368 nM | GI50 (UO-31 renal) 382 nM
> 100000 nM and 10400 nM: TGI (NCI-H23 lung)
10800 nM: TGI (CAKI-1 renal)
9010 nM: TGI (PC-3 prostate)
1100 nM: TGI (HT29 colon)
7540 nM: TGI (BT-549 breast) | TGI (OVCAR-5 ovarian)
464 nM: TGI (MDA-MB-435)
> 100000 nM and 14300 nM: TGI (EKVX NSCLC)
6640 nM: TGI (OVCAR-4 ovarian)
4790 nM: TGI (NCI/ADR-RES ovarian) | TGI (T-47D breast)
